Test results from PubChem BioAssay (NCI).
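Briefly, cells in 96-well plates were exposed to five compound concentrations for 48 h, and endpoints were estimated by linear interpolation. Abbreviation: GI50, concentration required for 50% inhibition of growth. TGI denotes the concentration required for complete inhibition of growth.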

Legend:
Assay in all cases: inhibition of tumour cell growth, NCI panel, 48 h
K-562 leukemia = system: K-562 leukemia
HCC-2998 colon = system: HCC-2998 colon
KM12 colon = system: KM12 colon
ACHN renal = system: ACHN renal
HS 578T breast = system: HS 578T breast
NCI-H226 lung = system: NCI-H226 lung
SK-MEL-28 melanoma = system: SK-MEL-28 melanoma
SF-268 CNS = system: SF-268 CNS
A549 NSCLC = system: A549 NSCLC
SK-MEL-5 melanoma = system: SK-MEL-5 melanoma

SMILES	GI50 (K-562 leukemia) [µM]	TGI (K-562 leukemia) [µM]	GI50 (HCC-2998 colon) [µM]	TGI (HCC-2998 colon) [µM]	GI50 (KM12 colon) [µM]	TGI (KM12 colon) [µM]	GI50 (ACHN renal) [µM]	TGI (ACHN renal) [µM]	GI50 (HS 578T breast) [µM]	TGI (HS 578T breast) [µM]	GI50 (NCI-H226 lung) [µM]	TGI (NCI-H226 lung) [µM]	GI50 (SK-MEL-28 melanoma) [µM]	TGI (SK-MEL-28 melanoma) [µM]	GI50 (SF-268 CNS) [µM]	TGI (SF-268 CNS) [µM]	GI50 (A549 NSCLC) [µM]	TGI (A549 NSCLC) [µM]	GI50 (SK-MEL-5 melanoma) [µM]	TGI (SK-MEL-5 melanoma) [µM]
CC1=C(C(=O)Nc2cc(Cl)c3[nH]ncc3c2)C(c2ccc(C(F)(F)F)cc2)CC(=O)N1 (stereo not given)	> 25	> 25	> 25	> 25	20	> 25	> 25	> 25	0.898	> 25	2.11	> 25	> 25	> 25	11.7	> 25	> 25	> 25	11.4	> 25
C=C(CO)[C@@H]1CC[C@]2(COC3CCCCO3)CC[C@]3(C)[C@H](CC[C@@H]4[C@@]5(C)C=C(C=O)C(=O)C(C)(C)[C@@H]5CC[C@]43C)[C@@H]12 (stereo not given in full)	0.316	1.28	0.286	0.838	0.555	1.94	0.21	0.488	0.318	0.997	0.538	1.47	0.254	0.688	0.297	0.979	0.495	1.87	0.38	1.46
O=C(N/N=C/c1ccc(O)cc1O)c1cccc(Nc2ccnc(C(F)(F)F)c2)c1	0.587	19.4	0.778	18.1	2.73	16.2	1.25	29.6	7.71	46.7	1.21	9.44	1.83	16.6	0.811	30.4	6.44	> 72	0.626	11.1
O=C(O)c1c(=O)cccc2ssc12	2.04	5.51	1.8	3.36	1.9	3.72	1.72	3.21	2.43	5.54	1.87	3.6	1.69	3.25	1.73	3.46	1.86	3.77	2.41	5.85
COC(=O)c1cc2c3ccccc3[nH]c2c2sccc12	15.2	> 100	19.4	43.5	12.3	87.2	13.6	> 100	13.5	38.7	68	> 100	40.4	> 100	32.4	> 100	25.5	> 100	16.3	35.4
CN(Cc1cc(Br)cc(Br)c1O)Cc1c(O)ccc2ccccc12	–	51.9	–	37.9	–	33.5	–	41.7	–	77.2	–	40.5	–	44.2	–	74.5	–	40.9	–	33.1
Cc1cc2c(C(N)=O)c(N)n(-c3c(C)ccc(O)c3C)c2nc1C	2	> 100	3.21	11.7	4.54	> 100	1.84	10.5	1.44	7.18	0.569	4.89	4.73	> 100	9.28	52.9	4.53	47.4	4.89	26.3
O=C1OC(=O)C2CCCC3CCCC1C32 (stereo not given)	–	> 100	–	> 100	–	> 100	–	> 100	–	> 100	–	> 100	–	> 100	–	> 100	–	> 100	–	> 100
CC(=[N-])N1CCC[C@@H](Nc2c3ccccc3nc3ccccc23)C1.[Cl][Pt].[NH-]CCC[NH-]	0.375	> 100	1.7	9.17	2.49	> 100	0.159	2.47	3.33	> 31.4	0.0328	0.2	0.21	2.31	3.68	> 100	0.0325	> 100	0.127	0.291
